According to ChEMBL document CHEMBL1201862, “PubChem BioAssay data set” (2004):
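Assay format: 96-well plates, 48-hour exposure. At the GI50, growth is halved.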 Active and inactive are the calls of the source. Cut-off read from the data, not from the text of the source: active = GI50 up to about 1.1 µM and inactive = higher.

Tests used:
Assay in all cases: NCI anticancer screen, dose series, 48 h
[1] = test system: M19-MEL
[2] = test system: OVCAR-3
[3] = test system: ACHN
[4] = test system: NCI-H226
[5] = test system: NCI-H460
[6] = test system: SK-MEL-5
[7] = test system: Malme-3M
[8] = test system: SF-295
[9] = test system: SF-539
[10] = test system: SF-268
[11] = test system: HL-60
[12] = test system: SNB-19
[13] = test system: HOP-92
[14] = test system: UO-31
[15] = test system: U-251
[16] = test system: KM12
[17] = test system: SK-OV-3
[18] = test system: SNB-75
[19] = test system: SR
[20] = test system: MDA-MB-435

Measured: GI50

CC1=NN(C(=O)c2ccc(Cl)cc2)C(=O)/C1=C/c1ccc(O)cc1
inactive: [1] > 100 µM | [2] > 100 µM | [3] > 100 µM | [4] > 100 µM | [5] > 100 µM | [6] > 100 µM | [7] > 100 µM | [8] > 100 µM | [9] > 100 µM | [10] > 100 µM | [11] > 100 µM | [12] > 100 µM | [13] > 100 µM | [14] > 100 µM | [15] > 100 µM | [16] > 100 µM | [17] > 100 µM

O=c1cc(CO)oc(C(O)c2ccccc2)c1O (stereo not drawn)
inactive: [18] > 100 µM | [2] > 100 µM | [19] > 100 µM | [3] > 100 µM | [4] > 100 µM | [5] > 100 µM | [6] > 100 µM | [7] > 100 µM | [8] > 100 µM | [9] > 100 µM | [10] > 100 µM | [20] > 100 µM | [11] > 100 µM | [12] > 100 µM | [13] > 100 µM | [14] > 100 µM | [15] > 100 µM | [16] > 100 µM | [17] > 100 µM

NCC(=O)N1CCN(c2nc(N3CCCC3)c3nc(Cl)c(NCc4ccccc4)nc3n2)CC1
inactive: [18] 1.57 µM | [2] 1.82 µM | [19] 1.56 µM | [3] 2.11 µM | [4] 3.66 µM | [5] 1.85 µM | [6] 1.72 µM | [7] 2.15 µM | [8] 1.86 µM | [9] 1.99 µM | [10] 2.07 µM | [20] 1.85 µM | [11] 1.81 µM | [12] 1.82 µM | [13] 1.45 µM | [14] 1.66 µM | [15] 1.71 µM | [16] 2.04 µM | [17] 1.81 µM

COc1cc2ccc(C(=O)NCCCNC(=O)c3ccc4cc(OC)c(OC)cc4c3)cc2cc1OC
inactive: [18] 32.9 µM | [2] > 100 µM | [19] 35.5 µM | [3] > 100 µM | [4] > 100 µM | [5] 33.7 µM | [6] > 100 µM | [7] > 100 µM | [8] > 100 µM | [9] 53.3 µM | [10] > 100 µM | [20] > 100 µM | [11] > 100 µM | [12] > 100 µM | [13] > 100 µM | [14] > 100 µM | [15] > 100 µM | [16] > 100 µM | [17] > 100 µM

CC1OC(=O)c2ccccc2NC1=O (stereo not drawn)
inactive: [18] > 100 µM | [2] > 100 µM | [19] > 100 µM | [3] > 100 µM | [4] > 100 µM | [5] > 100 µM | [6] > 100 µM | [7] > 100 µM | [8] > 100 µM | [9] > 100 µM | [10] > 100 µM | [20] > 100 µM | [11] > 100 µM | [12] > 100 µM | [13] > 100 µM | [14] > 100 µM | [15] > 100 µM | [16] > 100 µM | [17] > 100 µM

CC(C)c1ccc(C(c2c(O)oc3ccccc3c2=O)c2c(O)oc3ccccc3c2=O)cc1
inactive: [18] 25.9 µM | [2] 18.7 µM | [19] 9.64 µM | [3] 26.2 µM | [4] 20.6 µM | [5] 18.7 µM | [6] 16 µM | [7] 20.6 µM | [8] 20 µM | [9] 21.8 µM | [10] 25.6 µM | [20] 20.4 µM | [11] 6.03 µM | [12] 20.6 µM | [13] 7.85 µM | [14] 13.8 µM | [15] 15.1 µM | [16] 19.5 µM | [17] 27 µM

COC12C=CC(CC1)C(C)(C)C2=O (stereo not drawn)
inactive: [18] > 100 µM | [2] > 100 µM | [19] > 100 µM | [3] > 100 µM | [4] > 100 µM | [5] > 100 µM | [6] > 100 µM | [7] > 100 µM | [8] > 100 µM | [9] > 100 µM | [10] > 100 µM | [20] > 100 µM | [11] > 100 µM | [12] > 100 µM | [13] > 100 µM | [14] > 100 µM | [15] > 100 µM | [16] > 100 µM | [17] > 100 µM

C=CCc1cc(C(Cc2ccccc2)NC(C)C)cc(OCc2ccccc2)c1OCc1ccccc1 (stereo not drawn)
inactive: [18] 13.2 µM | [2] 16.7 µM | [19] 12.2 µM | [3] 16.9 µM | [4] 17.7 µM | [5] 15 µM | [6] 16.6 µM | [7] 15.5 µM | [8] 17.8 µM | [9] 15.2 µM | [10] 16 µM | [20] 15.7 µM | [11] 14.5 µM | [12] 15.3 µM | [13] 12.5 µM | [14] 10.1 µM | [15] 14.3 µM | [16] 20.7 µM | [17] 14 µM

CN(C)CCNS(=O)(=O)c1ccc(N)cc1
inactive: [18] > 100 µM | [2] 17.2 µM | [19] > 100 µM | [3] > 100 µM | [4] > 100 µM | [5] > 100 µM | [6] > 100 µM | [7] > 100 µM | [8] > 100 µM | [9] > 100 µM | [10] > 100 µM | [20] > 100 µM | [11] > 100 µM | [12] > 100 µM | [13] > 100 µM | [14] > 100 µM | [15] > 100 µM | [16] > 100 µM | [17] > 100 µM

N#Cc1c(-c2ccccc2)[nH]c2ccc(Cl)cc2c1=O
inactive: [18] 44.7 µM | [2] > 100 µM | [19] > 100 µM | [3] > 100 µM | [4] 38 µM | [5] > 100 µM | [6] > 100 µM | [7] > 100 µM | [8] 22.4 µM | [9] > 100 µM | [10] 36.1 µM | [20] > 100 µM | [11] > 100 µM | [12] 22.9 µM | [13] 22.9 µM | [14] 22.4 µM | [15] 28.2 µM | [16] > 100 µM | [17] 25.1 µM

COC(=O)c1ccc(/C=C2\CCc3ccccc3C2=O)cc1
inactive: [18] > 100 µM | [2] > 100 µM | [19] > 100 µM | [3] > 100 µM | [4] > 100 µM | [5] > 100 µM | [6] > 100 µM | [7] > 100 µM | [8] > 100 µM | [9] > 100 µM | [10] > 100 µM | [20] > 100 µM | [11] > 100 µM | [12] > 100 µM | [13] > 100 µM | [14] > 100 µM | [15] > 100 µM | [16] > 100 µM | [17] > 100 µM

CN(/N=C/c1cccc2cccnc12)c1ccc(Cl)cc1[N+](=O)[O-]
inactive: [18] > 100 µM | [2] > 100 µM | [19] > 100 µM | [3] > 100 µM | [4] > 100 µM | [5] 45.7 µM | [6] > 100 µM | [7] > 100 µM | [8] > 100 µM | [9] > 100 µM | [10] > 100 µM | [20] > 100 µM | [11] > 100 µM | [12] > 100 µM | [13] 31.7 µM | [14] > 100 µM | [15] > 100 µM | [16] 96.8 µM | [17] > 100 µM

O=C1c2cc3c(cc2CC12Cc1ccccc1C2)CCC3
inactive: [18] 31.6 µM | [2] 41.8 µM | [19] 35.9 µM | [3] 27.8 µM | [4] 23.4 µM | [5] 25.8 µM | [6] 18.3 µM | [7] 28.1 µM | [8] 46.5 µM | [9] 31.4 µM | [10] 34.8 µM | [20] 28.2 µM | [11] 25.5 µM | [12] > 100 µM | [13] 23.9 µM | [14] 26.2 µM | [15] 37.6 µM | [16] 24.9 µM | [17] > 100 µM

CCOC(=O)Cc1nnc2n(-c3ccccc3)c(=O)c3ccccc3n12
inactive: [18] 43.9 µM | [2] > 100 µM | [19] > 100 µM | [3] > 100 µM | [4] > 100 µM | [5] > 100 µM | [6] > 100 µM | [7] > 100 µM | [8] > 100 µM | [9] 51.6 µM | [10] 61.7 µM | [20] > 100 µM | [11] > 100 µM | [12] 74.8 µM | [13] 17.1 µM | [14] > 100 µM | [15] > 100 µM | [16] > 100 µM | [17] > 100 µM

CCOC(=O)C1(C(=O)OCC)[C@@H](c2ccccc2)C2=NO[C@@H]3CCC[C@H]1[C@H]23
inactive: [18] 47.4 µM | [2] 27 µM | [19] 40.7 µM | [3] 66.7 µM | [4] 78.5 µM | [5] 57.7 µM | [6] 24.3 µM | [7] > 100 µM | [8] 51.6 µM | [9] 96.2 µM | [10] > 100 µM | [20] 21.6 µM | [11] 24.3 µM | [12] > 100 µM | [13] 42.7 µM | [14] 53.3 µM | [15] 47.5 µM | [16] 28.9 µM | [17] 53.6 µM
